# Results reported in patent publication US5527775A, “Reduction of mammalian neoplasms with phospholipase A2 activating substances” (Enzon, Inc., priority 1994, dated 1996).
# Like-named read-outs stand apart in the source and are kept apart here.
# Tests used:
# C6 glioma cells = experiment: rat air pouch glioma model: tumor thickness, weight and necrosis; type: in vivo
# Method: C6 glioma cells (10^7) were injected into rats and allowed to grow for two weeks. The average thickness of the tumors was approximately 7±2 mm in thickness. The animals were then treated with 500 μg of either agarose complexed PLAP peptide SEQ ID NO. 1 or agarose complexed PLAP-like peptide in which the two adjacent prolines were deleted. After three days of treatment, the animals were given a second injection of the peptide and the tumors were measured on day 6 of the treatment regimen.
# C6 glioma cells (10^7) were injected into rats and allowed to grow for two weeks as in FIG. 1. By day 14, the tumors were approximately 7 mm in thickness. The animals were then given the indicated concentrations of the agarose complexed PLAP peptide. The thickness of the tumor was monitored after three days of treatment and the values are shown as a percentage of reduction in the tumor cell mass.
# Sprague-Dawley rats were injected with 10^6 C-6 glioma cells. The tumors were allowed to grow for 14 days prior to injection of 500 μg of agarose complexed PLAP peptide. Tumor thickness was measured after 3 and 6 days of treatment.
# G6 glioma cells, derived from a glioma induced in the Wistar strain of rat and obtained from the American Type Culture Collection (ATCC) were maintained in tissue culture. The cell cultures were grown to confluence in 75 cm^2 tissue culture flasks, detached from the flasks by addition of trypsin/EDTA, washed twice in fresh culture medium, and resuspended at a final concentration of 2×10^6 cells per ml.
# Air pouches were formed in female Sprague-Dawley rats (average age 6-8 weeks; average weight 180 grams). Briefly, 20 cc's of sterile air was injected into the subcutaneous tissues on the dorsum of the animal to form an air filled pouch. Inflation of the pouches was maintained by re-injection of sterile air every other day. Pouches were ready for use on day 7.
# Suspension of cultured glioma cells (1×10^6 -1×10^7 cells) were injected into the air pouches. By day 14, the tumors typically were of sufficient size to be used as described below.
# Animals were injected with 500 μgrams of PLAP peptide bound to agarose beads. A similar number of rats were injected with unmodified agarose beads as a control. In order to ensure uniform distribution of the bound peptide, the total volumes injected were increased to 5 ml by the addition of sterile saline immediately prior to injection. Since tumor growth was characterized by formation of large effusions containing high levels of eicosanoids, the tumors were aspirated immediately prior to injection of PLAP peptide or agarose beads alone.
# Seventy-two hours after injection, the animals were euthanized by using CO2 gas. The tumor effusions were aspirated and the tumor cell numbers were determined using a Coulter counter. The samples were frozen and stored at -80° for later eicosanoid assay. The tumor masses were removed through an incision made in the dorsum of the animal and weighed. […]
# To determine the effect of concentration of PLAP peptide on tumor cell number and tumor size, Sprague-Dawley rats were injected with 10^6 C-6 glioma cells as described above, and were then treated with either 0, 0.25, 0.5, or 1 mg/rat PLAP. Three days after treatment, the maximum thickness of the tumors was measured.
# To determine the length of the effectiveness of administering PLAP peptide, Sprague-Dawley rats were injected with 10^6 C-6 glioma cells as described above. […] Tumor thickness was measured 3 and 6 days after treatment.
# mononuclear cells = experiment: immunocytochemical analysis of tumors (mononuclear cell infiltrate); type: in vivo, rat; conditions: frozen sections of tumor tissues reacted with MAbs
# From the text: Snap-frozen tissue samples were sectioned on a cryotome, fixed in acetone, blocked with levamisole, and then reacted with monoclonal antibodies to cell surface determinants expressed by mononuclear cells. After washing, tissue sections were reacted with biotin-labelled rat anti-mouse IgG monoclonal antibodies, alkaline phosphate-labelled avidin-biotin complex (ABC, Vecta, Burlinghame, Calif.) and color developed by the addition of appropriate substrate. Sections were then mounted in Permount (Fisher Scientific) and read in an Olympus light microscope.
# To determine whether PLAP-induced tumor necrosis was associated with specific cellular events, frozen sections of tumor tissues were reacted with MAbs directed at subpopulations of mononuclear cells. […] Thus, PLAP-induced tumor necrosis appears to be mediated through enhanced NK/LAK cell activation.
# [1] = tested on: eicosanoids in exudates obtained from tumors; experiment: measurement of eicosanoids in tumor exudates; type: in vivo, rat; conditions: 72 hours after injection
# Method: Seventy-two hours after injection, the animals were euthanized by using CO2 gas. The tumor effusions were aspirated and the tumor cell numbers were determined using a Coulter counter. The samples were frozen and stored at -80° for later eicosanoid assay. The tumor masses were removed through an incision made in the dorsum of the animal and weighed. Samples of tumor tissues were stored in formalin for routine histology or snap-frozen in liquid N2 for immunocytochemistry.
# Eicosanoid levels in exudates obtained from tumors were determined using enzyme-lined immunoassay kits purchased from Cayman Chemical Company (Ann Arbor, Mich.) and used as recommended by the supplier. Calculations of the amounts of eicosanoids were made using EPA software purchased from the same company.
# [2] = tested on: LL-2 murine lung tumor cells; experiment: survival of mice injected with lung tumor cells; type: in vivo, C57 Bl/6 mice; conditions: 200 μg agarose bound peptide 1 and 4 days after tumor cells; vs agarose beads alone; p<0.0001 (FIG. 5)
# Method: (§1) C57 Bl/6 mice were injected with 10^6 LL-2 murine lung tumor cells. The mice were treated with 200 μg of agarose complexed PLAP peptide 1 and 4 days after injection of the tumor cells. The animals were checked daily for survival. The result obtained are the average for twenty animals in each group. Animals that received no treatment (.smallcircle.), animals that received PLAP ( ) p<0.0001.
# To test the effectiveness of the present methods in treating neoplastic lung cells, C57 Bl/6 mice were injected with 10^6 LL-2 murine lung tumor cells as described above for the glioma cells. The mice were treated with 200 μg of agarose bound PLAP peptide 1 and 4 days after injection of the tumor cells. The animals were checked daily for survival. FIG. 5 provides the average of the result obtained for twenty animals in each group were used.
# [3] = tested on: MTVL murine mammary tumor cells; experiment: survival of mice injected with mammary tumor cells; type: in vivo, Balb C mice; conditions: 200 μg agarose bound peptide 1 and 4 days after tumor cells; vs agarose beads alone; p<0.001 (FIG. 4)
# Method: as §1, with “Balb C” for “C57 Bl/6”, “MTVL” for “LL-2”, “mammary” for “lung”, “results” for “result”, “(.smallcircle.),animals” for “(.smallcircle.), animals”, “p<0.001.” for “p<0.0001.”
# The effectiveness of stimulating tumor necrosis for tumors other than gliomas was tested. To test effectiveness of the present methods in treating neoplastic mammary cells, Balb C mice were injected with 10^6 MTVL murine mammary tumor cells as described above for the glioma cells. The mice were treated with 200 μg of agarose bound PLAP peptide 1 and 4 days after injection of the tumor cells. The animals were checked daily for survival. FIG. 4 provides the average of the results obtained for twenty animals in each group.
# phospholipase A2 = experiment: stimulation of phospholipase A2 activity in vitro; type: biochemical; conditions: in vitro (unpublished results)
# From the text: As used herein phospholipase A2 activating agents, PLAA, are defined as agents which induce phospholipase A2 activity. A variety of procedures are known in the art for assaying an agent for PLAA activity. These include, but are not limited to, assaying cultured endothelial cells or smooth muscle cells for the release of arachidonic acid in the presence of the agent as well as cell free systems which utilize 1-palmitoyl-2-[14C]arachidonyl-sn-glycero-3-phospho-[methy13H]choline to assay for PLA2 activity (see Clark et al., J. Biol. Chem. 261:10713-10718 (1986) and Clark et al., Biochem. J. 250:125-132 (1988).
# PLA2 = conditions: Salari et al., Mol. Pharm. 28:546 (1985), cited from earlier work
# neutrophil = conditions: Bomalaski et al., J. Immuno. (1989); cited from earlier work
molecule,measurement,setting,value
GLU-SER-PRO-LEU-ILE-ALA-LYS-VAL-LEU-THR-THR-GLU-PRO -PRO-ILE-ILE-THR-PRO-VAL-ARG-ARG-(THR-LEU) [PLAP peptide],reduction in tumor size as a function of amount administered,"C6 glioma cells; rats, 0, 0.25, 0.5 or 1 mg/rat, maximum tumor thickness three days after treatment (FIG. 2)",concentration dependent
same,duration of tumor necrosis,"C6 glioma cells; rats, 500 μg agarose bound peptide, tumor thickness 3 and 6 days after treatment (FIG. 3)",observed to continue even at 6 days
same,tumor regression / size of the tumor,"C6 glioma cells; rats, 500 μg agarose complexed peptide, second injection after three days, tumors measured on day 6 (FIG. 1)",profound effect on the size of the tumor
same,tumor weight compared with control animals,"C6 glioma cells; rats, 500 μg peptide bound to agarose beads, 72 hours",reduction in tumor weight
same,tumor necrosis,"C6 glioma cells; rats, 500 μg peptide bound to agarose beads, tumor tissues examined after 72 hours",caused significant necrosis
same,OXI (cytotoxic T lymphocyte) and NRK-1 positive (NK) cells in the infiltrate,mononuclear cells,high numbers
same,mononuclear cell infiltrate in tumor tissues,mononuclear cells,stimulated mononuclear cell infiltrate
same,amount of LTC4 in exudates from tumors compared with those injected with agarose beads,[1],No changes
same,amount of PGE2 in treated tumors compared with tumors injected with agarose beads,[1],50 fold
same,amount of PGI2 in exudates from tumors compared with those injected with agarose beads,[1],No changes
same,amount of leukotriene B4 (LTB4) in treated tumors compared with tumors injected with agarose beads,[1],20 fold
same,survival of mice injected with lung tumor cells,[2],increased the survival
same,survival of mice injected with mammary tumor cells,[3],increased the survival
same,stimulation of phospholipase A2 activity in vitro,phospholipase A2,stimulated phospholipase A2 activity
TNF-alpha,stimulation of PLA2 activity,PLA2,shown to stimulate PLA2 activity
CC[C@H](C)[C@H](NC(=O)CN)C(=O)NCC(=O)N[C@@H](C)C(=O)N[C@H](C(=O)N[C@@H](CC(C)C)C(=O)N[C@@H](CCCCN)C(=O)N[C@H](C(=O)N[C@@H](CC(C)C)C(=O)N[C@H](C(=O)N[C@H](C(=O)NCC(=O)N[C@@H](CC(C)C)C(=O)N1CCC[C@H]1C(=O)N[C@@H](C)C(=O)N[C@@H](CC(C)C)C(=O)N[C@H](C(=O)N[C@@H](CO)C(=O)N[C@@H](Cc1c[nH]c2ccccc12)C(=O)N[C@H](C(=O)N[C@@H](CCCCN)C(=O)N[C@@H](CCCNC(=N)N)C(=O)N[C@@H](CCCCN)C(=O)N[C@@H](CCCNC(=N)N)C(=O)N[C@@H](CCC(N)=O)C(=O)N[C@@H](CCC(N)=O)C(N)=O)[C@@H](C)CC)[C@@H](C)CC)[C@@H](C)O)[C@@H](C)O)C(C)C)C(C)C [melittin],stimulation of PLA2 activity,PLA2,shown to stimulate PLA2 activity
same,stimulation of PLA2 activity,PLA2; listed as Melittin,has phospholipase activating activity
"PLAP: mouse phospholipase A2 activating protein, molecular mass approximately 28,000 (protein, UniProt P27612 1-794, looked up) Phospholipase A-2-activating …: MASGASRYRLSCSLPGHELDVRGLVCCLYPPGAFVSVSRDRTTRLWAPDSPNRGFTEMHCMSGHSNFVSCVCIIPSSDIYPHGLIATGGNDHNICIFSLDSPMPLYILKGHKDTVCSLSSGKFGTLLSGSWDTTAKVWLNDKCMMTLQGHTAAVWAVKILPEQGLMLTGSADKTIKLWKAGRCERTFLGHEDCVRGLAILSETEFLSCANDASIRRWQITGECLEVYFGHTNYIYSISVFPNSKDFVTTAEDRSLRIWKHGECAQTIRLPAQSIWCCCVLENGDIVVGASDGIIRVFTESEERTASAEEIKAFERELSQATIDSKTGDLGDINAEQLPGREHLSEPGTREGQTRLIRDGERVEAYQWSVSDGRWIKIGDVVGSSGANQQTSGKVLYEGKEFDYVFSIDVNEGGPSYKLPYNVSDDPWLVAYNFLQKNDLNPMFLDQVAKFIIDNTKGQTLGLGNTSFSDPFTGGGRYVPGTSGPSNTVQTADPFTGAGRYMPGSAGMDTTMTGVDPFTGNSAYRSAASKTVNIYFPKKEALTFDQANPTQILGKLKELNGTAPEEKKLTEDDLVLLEKILSLICNNSSEKPTAQQLQILWKAINWPEDIVFPALDILRLSIKHPNVNENFCNEKGDQFSSHLINLLNPKGKPANQLLALRTFCNCFVSQAGQKLMMSQRESLMSHAIELKSGSNKNIHIALATLTLNYSVCFHKDHNIEGKAQCLSVISTILEVVQDLEATFRLLVALGTLISDDSNAIQLAKSLGVDSQIKKYVSVSEPAKVSECCRLVLHLL",neutrophil aggregation,neutrophil,stimulates neutrophil aggregation
same,neutrophil chemokinesis,neutrophil,stimulates
